The record followed here is ChEMBL document CHEMBL3399917, “Design, synthesis and antiproliferative activity evaluation of m-(4-morpholinyl-1,3,5-triazin-2-yl)benzamides in vitro” (Bioorg Med Chem Lett, 2015).

Active and inactive are the calls of the source. The calls are words filed in the database; no cut-off is given here.

The nature of experiment [1]: Antiproliferative activity against human HCT116 cells assessed as inhibitory ratio at 10 uM after 72 hrs by MTT assay. It is filed as functional. The settings on record: HCT-116, 72 h. (Tetrazolium dyes change colour on reduction, which living cells bring about.)
Experiment [2] has as its system MCF7. As to the kind of experiment: Antiproliferative activity against human MCF7 cells assessed as inhibitory ratio at 10 uM after 72 hrs by MTT assay. It is filed as functional. The conditions noted are these: MCF7, 72 h.
In experiment [3] the test system is MCF7. Put plainly: Antiproliferative activity against human MCF7 cells after 72 hrs by MTT assay. The settings on record: MCF7, 72 h. It is filed as functional, cell-based.
Experiment [4] can be described thus: Antiproliferative activity against human U87MG cells after 72 hrs by MTT assay. It is filed as functional, cell-based, U-87MG ATCC. The settings on record: U-87 MG.
The nature of experiment [5]: Antiproliferative activity against human HCT116 cells after 72 hrs by MTT assay. It is filed as functional, cell-based. The conditions noted are these: HCT-116, 72 h.
The test system of another experiment is HeLa. As to the kind of experiment: Antiproliferative activity against human HeLa cells after 72 hrs by MTT assay. It is filed as functional, cell-based.
The subject of a further experiment is A549. Put plainly: Antiproliferative activity against human A549 cells after 72 hrs by MTT assay. It is filed as functional, cell-based. The conditions noted are these: A549, 72 h.
The subject of experiment [6] is HCT-116. Put plainly: Inhibition of PI3K/Akt in human HCT116 cells assessed as Akt phosphorylation at 10 uM after 1 hr by Western blotting analysis. It is filed as cell-based. For orientation: In western blotting, separated proteins are transferred to a membrane and probed.
The subject of experiment [7] is HCT-116. Put plainly: Induction of apoptosis in human HCT116 cells assessed as cell shrinking and vacuolization, chromatin condensation and nuclear fragmentation after 24 hrs by Hoechst staining based phase contrast microscopy. It is filed as functional.

In general, inhibition refers to the relative decrease from the control value, in per cent. Take `NC(=O)c1cc(-c2nc(N3CCOCC3)nc(N3CCOCC3)n2)ccc1OCc1ccccc1`: the inhibition at 10 µM was determined as 29.9% in experiment [1] and 31.2% with MCF7 [2].

Turning to `O=C(O)c1cc(-c2nc(N3CCOCC3)nc(N3CCOCC3)n2)cc(C(F)(F)F)c1`, the inhibition at 10 µM in [1] is 44.9%; with MCF7 [2] it was 34.4%.

Consider `COc1cc(C(N)=O)cc(-c2nc(N3CCOCC3)nc(N3CCOCC3)n2)c1`, for which the inhibition at 10 µM in [1] stood at 41.2%; in the experiment with MCF7 [2], 42.2%.

On to `NC(=O)c1cc(OCc2ccccc2)cc(-c2nc(N3CCOCC3)nc(N3CCOCC3)n2)c1`, for which the figures for the inhibition at 10 µM (in [1]; with MCF7 [2]) were 31.6% and 32.5%, respectively.

As to `CS(=O)(=O)N1CCC(Nc2nc(-c3cc(C(N)=O)cc(C(F)(F)F)c3)nc(N3CCOCC3)n2)CC1`, the inhibition at 10 µM in [1] amounted to 42.9%; in the experiment on MCF7 [2] it was 30.9%.

For orientation: IC50 means the concentration needed to halve the response being measured. Lower therefore signals greater potency in that assay. Turning to `NC(=O)c1cc(O)cc(-c2nc(N3CCOCC3)nc(N3CCOCC3)n2)c1`, the IC50 was found to be 2170 nM in the experiment with MCF7 [3]; 3210 nM in experiment [4]; 1190 nM in [5]; 8170 nM with HeLa; 3720 nM in the experiment with A549. For the same compound, the inhibition at 10 µM in experiment [1] worked out at 77.9%; with MCF7 [2] it was 65.8%.

With `NC(=O)c1cc(-c2nc(N3CCOCC3)nc(N3CCOCC3)n2)cc(C(F)(F)F)c1`, the IC50 in the experiment with MCF7 [3] came out at 4970 nM; in [4], 11200 nM; in experiment [5], 2430 nM; with HeLa, 8070 nM; with A549, 8230 nM. Besides, the inhibition at 10 µM in experiment [1] is 71.4%; in the experiment on MCF7 [2], 59.3%.

Take `CN1CCN(c2nc(-c3cc(C(N)=O)cc(C(F)(F)F)c3)nc(N3CCOCC3)n2)CC1`: the inhibition at 10 µM in experiment [1] stood at 36.2%; in the experiment with MCF7 [2] it was 40.2%.

For the compound `NC(=O)c1cc(-c2nc(N3CCOCC3)nc(N3CCOCC3)n2)ccc1Cl`, the inhibition at 10 µM in [1] worked out at 35.6%; with MCF7 [2], 34.4%.

For `Nc1cc(C(F)(F)F)c(-c2cc(N3CCOCC3)nc(N3CCOCC3)n2)cn1` [BUPARLISIB], the IC50 turned out to be 1000 nM with MCF7 [3]; 1640 nM in experiment [4]; 480 nM in [5]; 4340 nM in the experiment on HeLa; 2070 nM in the experiment on A549. Moreover, the values for the inhibition at 10 µM (in experiment [1]; in the experiment on MCF7 [2]) were 89.5% and 84%, respectively. Further, the inhibition result in the experiment on HCT-116 [6] was “Active”.

Consider `CS(=O)(=O)NC1CCN(c2nc(-c3cc(C(N)=O)cc(C(F)(F)F)c3)nc(N3CCOCC3)n2)CC1`, for which the inhibition at 10 µM came to 19% in experiment [1] and 49.3% with MCF7 [2].

As for `CN(CCCC(=O)N1CCN(S(C)(=O)=O)CC1)c1nc(-c2cc(C(N)=O)cc(C(F)(F)F)c2)nc(N2CCOCC2)n1`, the inhibition at 10 µM in experiment [1] is 40.8%; with MCF7 [2] it was 37.7%.

As to `NC(=O)c1cc(-c2nc(NCC(=O)N3CCOCC3)nc(N3CCOCC3)n2)cc(C(F)(F)F)c1`, the inhibition at 10 µM was found to be 29.2% in [1] and 30.3% in the experiment with MCF7 [2].

`CN(CCCC(=O)N1CCOCC1)c1nc(-c2cc(C(N)=O)cc(C(F)(F)F)c2)nc(N2CCOCC2)n1`: the inhibition at 10 µM in experiment [1] came to 44.8%; in the experiment on MCF7 [2], 38.5%.

Take `COc1ccc(-c2nc(N3CCOCC3)nc(N3CCOCC3)n2)cc1C(N)=O`: the inhibition at 10 µM in experiment [1] was determined as 40.4%; in the experiment on MCF7 [2], 36.2%.

For the compound `CS(=O)(=O)N1CCN(c2nc(-c3cc(C(N)=O)cc(C(F)(F)F)c3)nc(N3CCOCC3)n2)CC1`, the results for the inhibition at 10 µM (in experiment [1]; with MCF7 [2]) were 19.4% and 47.4%, respectively.

With `NC(=O)c1cc(OC(F)(F)F)cc(-c2nc(N3CCOCC3)nc(N3CCOCC3)n2)c1`, the IC50 came out at 1250 nM with MCF7 [3]; 1530 nM in experiment [4]; 900 nM in [5]; 4830 nM in the experiment with HeLa; 2370 nM in the experiment on A549. Besides, the Activity entry with HCT-116 [7] is “Dose-dependent effect”. Further, the results for the inhibition at 10 µM (in [1]; with MCF7 [2]) were 89.3% and 70.7%, respectively. The inhibition result in the experiment with HCT-116 [6] is “Active”.

Take `NC(=O)c1cc(-c2nc(N3CCOCC3)nc(N3CCOCC3)n2)ccc1OCc1ccc(F)cc1`: the IC50 in the experiment with MCF7 [3] was 5230 nM; in experiment [4], 3980 nM; in [5], 2870 nM; with HeLa, over 20000 nM; in the experiment with A549, 11300 nM. Further, the inhibition at 10 µM was 66.9% in experiment [1] and 54.9% in the experiment with MCF7 [2].

With `NC(=O)c1cccc(-c2nc(N3CCOCC3)nc(N3CCOCC3)n2)c1`, the inhibition at 10 µM in experiment [1] amounted to 51.1%; with MCF7 [2], 38%.

Take `NC(=O)c1cc(-c2nc(N3CCOCC3)nc(N3CCOCC3)n2)ccc1O`: the inhibition at 10 µM in experiment [1] is 31.7%; in the experiment with MCF7 [2], 32.7%.

On to `CN(c1nc(-c2cc(C(N)=O)cc(C(F)(F)F)c2)nc(N2CCOCC2)n1)C1CCN(S(C)(=O)=O)CC1`, for which the half-inhibitory concentration (IC50) in the experiment on MCF7 [3] was found to be 2130 nM; in experiment [4], 4630 nM; in experiment [5] it was 1940 nM; in the experiment on HeLa, 7120 nM; with A549, 2360 nM. Moreover, the values for the inhibition at 10 µM (in experiment [1]; in the experiment on MCF7 [2]) were 72% and 61.7%, respectively.

As for `CS(=O)(=O)N1CCN(C(=O)CNc2nc(-c3cc(C(N)=O)cc(C(F)(F)F)c3)nc(N3CCOCC3)n2)CC1`, the inhibition at 10 µM stood at 29.8% in [1] and 19.3% with MCF7 [2].

`COC(=O)c1cc(-c2nc(N3CCOCC3)nc(N3CCOCC3)n2)cc(C(F)(F)F)c1`: the inhibition at 10 µM in experiment [1] amounted to 40%; in the experiment on MCF7 [2] it was 37.2%.

As to `NC(=O)c1cc(-c2nc(N3CCOCC3)nc(N3CCOCC3)n2)ccc1OCc1cccc(F)c1`, the inhibition at 10 µM in experiment [1] came to 35.9%; with MCF7 [2], 26.2%.
